Measurements from PMC5486975 (European journal of medicinal chemistry, 2017).

Legend:
[1] = tested on: PC-3 human androgen-insensitive prostate cancer cell line; assay: WST-1 cell proliferation assay, PC-3; assay type: cell-based
[2] = tested on: LNCaP human androgen-sensitive prostate cancer cell line; assay: WST-1 cell proliferation assay, LNCaP; assay type: cell-based
PC-3 cells = settings: cited from earlier work
[3] = tested on: PWR-1E non-neoplastic human prostate epithelial cells; assay: WST-1 cell proliferation assay, PWR-1E; assay type: cell-based
[4] = tested on: DU145 human androgen-insensitive prostate cancer cell line; assay: WST-1 cell proliferation assay, DU145; assay type: cell-based
[5] = fold potency relative to curcumin

IC50 ([1]; Homo sapiens, 72 h, read-out: IC50 (μM) PC-3): 25.4 ± 2.15 µM
IC50(curcumin)/IC50(trienone) PC-3 [1, 5]: 1
IC50 ([2]; Homo sapiens, LNCaP, 72 h, read-out: IC50 (μM) LNCaP): 13.6 ± 2.69 µM
IC50(curcumin)/IC50(trienone) LNCaP [2, 5]: 1
IC50 ([4]; Homo sapiens, DU-145, 72 h, read-out: IC50 (μM) DU145): 26.2 ± 0.65 µM
IC50(curcumin)/IC50(trienone) DU145 [4, 5]: 1
SMILES: COc1cc(/C=C/C(=O)CC(=O)/C=C/c2ccc(O)c(OC)c2)ccc1O [Curcumin]
effect on PC-3 cell cycle progression (PC-3 cells): arresting the G1/S phase
IC50 ([3]; Homo sapiens, PWR-1E, 72 h, read-out: IC50 (μM) PWR-1E): 8.14 to 9.54 µM
IC50(curcumin)/IC50(trienone) PWR-1E [3, 5]: 1
